This passage reports MBC and MIC results from article PMC6155255, “Synthetic Peptides Derived from Bovine Lactoferricin Exhibit Antimicrobial Activity against E. coli ATCC 11775, S. maltophilia ATCC 13636 and S. enteritidis ATCC 13076” (Molecules : A Journal of Synthetic Chemistry and Natural …, 2017).

Where two headings read alike, the source gives them in different places. Positions of bridges follow the written chain, without caps; N, C: chain ends. Non-standard residues stand in square brackets, D forms with d. Residues, ends and D or L forms follow the SMILES beside them. Chains are numbered I, II in the order given. No end group written: not given here. Ahx = NCCCCCC(=O)O Some results are limits rather than exact numbers.

In experiment [1] the test system is E. coli ATCC 11775. It is filed as cell-based, Escherichia coli. How it is done:
(§1) The MIC and MBC were determined using a microdilution assay. In brief, bacterial strains were incubated for 18 to 24 h at 37 °C in an MH broth until an optical density of 0.15 to 0.30 (620 nm) was obtained. 90 µL of Mueller-Hinton broth (MHB) were mixed with 90 µL of peptide (440 µg/mL), and using a 96-well microtiter plate peptide, serial dilution (200, 100, 50, 25, 12.5, and 6.2 µg/mL) was performed. 10 µL of inoculum (2 × 10^6 CFU/mL) was added to each well. Final volume in each well was 100 µL. Then they were incubated for 24 h at 37 °C; and the absorbance at 620 nm was measured using an Asys Expert Plus ELISA reader. To determine the MBC, an aliquot was taken from each well and was spread onto a MHA plate. After 24 h at 37 °C, the CFU/mL was determined. Each of these tests was performed twice.

Experiment [2] has as its system S. maltophilia ATCC 13636. It counts as cell-based, Stenotrophomonas maltophilia. How it is done: as §1
Experiment [3] deals with S. enteritidis ATCC 13076. It counts as cell-based, Salmonella enteritidis. How it is done: as §1
In experiment [4] the test system is E. coli ATCC 25922. As to conditions: cited from earlier work. How it is done: This apparent discrepancy could be related to the method used for determining the MIC [46, 47]. The antibacterial activity of LfcinB against E. coli IID861 was determined using the microdilution method with Mueller-Hinton broth (MIC = 50 µg/mL) or peptone-based broth (MIC = 6 µg/mL). […] Antibacterial activity against E. coli ATCC 25922 has also been reported, s ...

For experiment [5], the system named is E. coli K88. On the set-up: method as in PMID 11248238, PMID 21607695, doi:10.1002/(SICI)1099-1387(199901)5:1<32::AID-PSC172>3.0.CO. As to conditions: cited from earlier work.
Experiment [6] relates to E. coli ATCC 25922.
The mark [7] stands for this setting: E. coli ATCC 11775, aliquot of each well spread on MHA plate, 24 h at 37 °C, CFU/mL, performed twice.
Where [8] appears, read: E. coli ATCC 11775, microdilution, Mueller-Hinton broth, 24 h at 37 °C, absorbance 620 nm, 6.2-200 µg/mL tested, performed twice.
Setting [9] is: E. coli ATCC 11775, value in brackets (µM), aliquot spread on MHA plate, 24 h at 37 °C, performed twice.
[10] abbreviates: E. coli ATCC 11775, value in brackets (µM), microdilution, Mueller-Hinton broth, 24 h at 37 °C, performed twice.
Setting [11] is: S. maltophilia ATCC 13636, aliquot of each well spread on MHA plate, 24 h at 37 °C, CFU/mL, performed twice.
Where [12] appears, read: S. maltophilia ATCC 13636, microdilution, Mueller-Hinton broth, 24 h at 37 °C, absorbance 620 nm, 6.2-200 µg/mL tested, performed twice.
Setting [13] is: S. enteritidis ATCC 13076, aliquot of each well spread on MHA plate, 24 h at 37 °C, CFU/mL, performed twice.
The mark [14] stands for this setting: S. enteritidis ATCC 13076, microdilution, Mueller-Hinton broth, 24 h at 37 °C, absorbance 620 nm, 6.2-200 µg/mL tested, performed twice.

With `CSCC[C@H](NC(=O)[C@H](CCCNC(=N)N)NC(=O)[C@H](Cc1c[nH]c2ccccc12)NC(=O)[C@H](CCC(N)=O)NC(=O)[C@H](Cc1c[nH]c2ccccc12)NC(=O)[C@H](CCCNC(=N)N)NC(=O)[C@H](CCCNC(=N)N)NC(=O)[C@H](CS)NC(=O)[C@H](CCCCN)NC(=O)[C@@H](N)Cc1ccccc1)C(=O)N[C@@H](CCCCN)C(=O)N[C@@H](CCCCN)C(=O)N[C@@H](CC(C)C)C(=O)NCC(=O)N[C@@H](C)C(N)=O` [LfcinB 17–31], the MBC (as a rule, the lowest tested concentration that kills the bacteria rather than only halting them) in experiment [1] (ATCC 11775, 24 h) is 13 µM; in experiment [1] (setting [7]), 25 µg/mL; in experiment [1] (setting [9]), 12.5 µM; in experiment [2] (ATCC 13636, 24 h), above 100 µM; in experiment [2] (setting [11]) it was above 200 µg/mL; in experiment [3] (ATCC 13076, 24 h), 100 µM. This compound also registered a minimum bactericidal concentration (MBC) in experiment [3] (setting [13]) of 200 µg/mL. In addition, the minimum inhibitory concentration (MIC) (as a rule, the smallest concentration in the dilution series that meets the test's criterion for growth inhibition) in experiment [1] (ATCC 11775, 24 h) is recorded as 13 µM; in experiment [1] (setting [8]), 25 µg/mL; in experiment [1] (setting [10]), 12.5 µM; in experiment [2] (ATCC 13636, 24 h) it was above 100 µM; in experiment [2] (setting [12]), above 200 µg/mL; in experiment [3] (ATCC 13076, 24 h) it was above 100 µM. Also, the MIC in experiment [3] (setting [14]) is above 200 µg/mL.
With `N=C(N)NCCC[C@H](NC(=O)[C@H](Cc1c[nH]c2ccccc12)NC(=O)[C@H](CCC(N)=O)NC(=O)[C@H](Cc1c[nH]c2ccccc12)NC(=O)[C@H](CCCNC(=N)N)NC(=O)[C@@H](N)CCCNC(=N)N)C(=O)NCCCC[C@H](NC(=O)[C@H](CCCNC(=N)N)NC(=O)[C@H](Cc1c[nH]c2ccccc12)NC(=O)[C@H](CCC(N)=O)NC(=O)[C@H](Cc1c[nH]c2ccccc12)NC(=O)[C@H](CCCNC(=N)N)NC(=O)[C@@H](N)CCCNC(=N)N)C(=O)NCCCCCC(N)=O` [LfcinB (20–25)2] (I: H-RRWQWRK[Ahx]-NH2 / II: H-RRWQWR; amide I:7-II:C), the MBC in experiment [1] (ATCC 11775, 24 h) is on record as 3 µM; in experiment [1] (setting [7]) it was 6.2 µg/mL; in experiment [1] (setting [9]), 2.8 µM; in experiment [2] (ATCC 13636, 24 h), 22.4 µM; in experiment [2] (setting [11]), 50 µg/mL; in experiment [3] (ATCC 13076, 24 h), 5.6 µM. The MBC in experiment [3] (setting [13]) turned out to be 12.5 µg/mL. Moreover, the MIC in experiment [1] (ATCC 11775, 24 h) amounted to 3 µM; in experiment [1] (setting [8]) it was 6.2 µg/mL; in experiment [1] (setting [10]) it was 2.8 µM; in experiment [2] (ATCC 13636, 24 h), 22.4 µM; in experiment [2] (setting [12]), 50 µg/mL; in experiment [3] (ATCC 13076, 24 h) it was 6 µM. The MIC in experiment [3] (setting [14]) was found to be 12.5 µg/mL; in experiment [3] (S. enteritidis ATCC 13076, value in brackets (µM), microdilution, Mueller-Hinton broth, 24 h at 37 °C, performed twice), 5.6 µM.
For `N=C(N)NCCC[C@H](NC(=O)[C@H](Cc1c[nH]c2ccccc12)NC(=O)[C@H](CCC(N)=O)NC(=O)[C@H](Cc1c[nH]c2ccccc12)NC(=O)[C@H](CCCNC(=N)N)NC(=O)[C@@H](N)CCCNC(=N)N)C(=O)NCCCC[C@H](NC(=O)[C@H](CCCNC(=N)N)NC(=O)[C@H](Cc1c[nH]c2ccccc12)NC(=O)[C@H](CCC(N)=O)NC(=O)[C@H](Cc1c[nH]c2ccccc12)NC(=O)[C@H](CCCNC(=N)N)NC(=O)[C@@H](N)CCCNC(=N)N)C(=O)NCCCCCC(=O)N[C@@H](CSSC[C@H](NC(=O)CCCCCNC(=O)[C@H](CCCCNC(=O)[C@H](CCCNC(=N)N)NC(=O)[C@H](Cc1c[nH]c2ccccc12)NC(=O)[C@H](CCC(N)=O)NC(=O)[C@H](Cc1c[nH]c2ccccc12)NC(=O)[C@H](CCCNC(=N)N)NC(=O)[C@@H](N)CCCNC(=N)N)NC(=O)[C@H](CCCNC(=N)N)NC(=O)[C@H](Cc1c[nH]c2ccccc12)NC(=O)[C@H](CCC(N)=O)NC(=O)[C@H](Cc1c[nH]c2ccccc12)NC(=O)[C@H](CCCNC(=N)N)NC(=O)[C@@H](N)CCCNC(=N)N)C(N)=O)C(N)=O` [LfcinB (20–25)4] (I: H-RRWQWRK[Ahx]C-NH2 / II: H-RRWQWRK[Ahx]C-NH2 / III: H-RRWQWR / IV: H-RRWQWR; amide I:7-III:C, II:7-IV:C; disulfide I:9-II:9), the MBC in experiment [1] (ATCC 11775, 24 h) was 5 µM; in experiment [1] (setting [7]), 25 µg/mL; in experiment [1] (setting [9]), 5.5 µM; in experiment [2] (ATCC 13636, 24 h), 44 µM; in experiment [2] (setting [11]), 200 µg/mL; in experiment [3] (ATCC 13076, 24 h), 22 µM. Besides, the MBC in experiment [3] (setting [13]) is listed as 100 µg/mL. The MIC in experiment [1] (ATCC 11775, 24 h) is given as 5 µM; in experiment [1] (setting [8]), 25 µg/mL; in experiment [1] (setting [10]), 5.5 µM; in experiment [2] (ATCC 13636, 24 h), above 44 µM; in experiment [2] (setting [12]), above 200 µg/mL; in experiment [3] (ATCC 13076, 24 h), 44 µM. The compound also yielded a minimum inhibitory concentration (MIC) in experiment [3] (setting [14]) of 200 µg/mL.
On to `N=C(N)NCCC[C@@H]1NC(=O)[C@H](Cc2c[nH]c3ccccc23)NC(=O)[C@H](CCC(N)=O)NC(=O)[C@H](Cc2c[nH]c3ccccc23)NC(=O)[C@H](CCCNC(=N)N)NC(=O)[C@H](CCCNC(=N)N)NC(=O)[C@@H](N)CSSC[C@@H](C(N)=O)NC(=O)CCCCCNC1=O` [LfcinB (20–25)Cyc] (H-CRRWQWR[Ahx]C-NH2; disulfide 1-9; N-terminus assumed), for which the MBC in experiment [1] (ATCC 11775, 24 h) came to 19 µM; in experiment [1] (setting [7]), 25 µg/mL; in experiment [1] (setting [9]), 21 µM; in experiment [2] (ATCC 13636, 24 h) it was 200 µg/mL; in experiment [3] (ATCC 13076, 24 h) it was 42 µM; in experiment [3] (setting [13]), 50 µg/mL. Also, the MIC in experiment [1] (ATCC 11775, 24 h) came out at 19 µM; in experiment [1] (setting [8]) it was 25 µg/mL; in experiment [1] (setting [10]) it was 21 µM; in experiment [2] (ATCC 13636, 24 h) it was 200 µg/mL; in experiment [3] (ATCC 13076, 24 h), 42 µM; in experiment [3] (setting [14]) it was 50 µg/mL.
On to “FKCRRWAQRWRMKKLGAPSITCVRRAF [synthetic peptide homolog to LfcinB, 27 residues, from the literature]”, for which the MIC in experiment [4] is reported as 30 µg/mL; in experiment [5] it was 64 µg/mL.
For “KCRRWAQRWRMKKLGAPSITCVR [shorter peptide, 23 residues, from the literature]”, the MIC in experiment [4] is 30 µg/mL.
On to RRWQWR-NH2 [LfcinB 20–25], for which the MBC is 13 µM in experiment [1] (ATCC 11775, 24 h); above 203 µM in experiment [2] (ATCC 13636, 24 h); 102 µM in experiment [3] (ATCC 13076, 24 h). Besides, the MIC in experiment [1] (ATCC 11775, 24 h) is 13 µM; in experiment [2] (ATCC 13636, 24 h), above 203 µM; in experiment [3] (ATCC 13076, 24 h) it was 102 µM.
For the compound RWQWRWQWR-NH2 [LfcinB 21–25Pal], the MBC in experiment [1] (ATCC 11775, 24 h) is given as 8 µM; in experiment [2] (ATCC 13636, 24 h), 136 µM; in experiment [3] (ATCC 13076, 24 h), 17 µM. For the same compound, the MIC is recorded as 8 µM in experiment [1] (ATCC 11775, 24 h); above 136 µM in experiment [2] (ATCC 13636, 24 h); 17 µM in experiment [3] (ATCC 13076, 24 h); 40 µg/mL in experiment [6].
For the compound RWRWR, the MIC in experiment [4] (palindromic sequences) is 200 µg/mL.
Regarding WRWRW, the MIC in experiment [4] (palindromic sequences) was 15 µg/mL.
As for WRYRW, the MIC in experiment [4] (palindromic sequences) is 100 µg/mL.
